What was measured:
[1] = test system: house flies (Musca domestica, L.); assay: Fly Bait Test; type: in vivo; design: key: A: excellent control; B: partial control; C: no control; conditions: adults, 500 parts of test compound per million parts of final formulation, 24 hours
Procedure: (§1) Suspensions of the test compounds were prepared by dissolving one gram of compound in 50 milliliters of acetone in which had been dissolved 0.1 gram (10 percent of the weight of compound) of an alkylphenoxy polyethoxyethanol surfactant, as an emulsifying or dispersing agent. The resulting solution was mixed into 150 milliliters of water to give roughly 200 milliliters of a suspension containing the compound in finely divided form. The thus-prepared stock suspension contained 0.5 percent by weight of test compound. The test concentrations in parts per million by weight employed in the tests described hereinbelow were obtained by appropriate dilutions of the stock suspension with water. The test procedures were as follows:
Four to 6 day old adult house flies (Musca domestica, L.) reared according to the specifications of the Chemical Specialties Manufacturing Association (Blue Book, McNair-Dorland Co., NY., 1954; pages 243-244, 261) under controlled conditions of 80±5° F. and 50±5 percent relative hmidity, were the test insects. The flies were immobilized by anesthetizing with carbon dioxide and 25 immobilized individuals, males and females, were transferred to a cage consisting of a standard food strainer about 5 inches in diameter which was inverted over a wrapping-paper-covered surface. The test compounds were formulated by diluting the stock suspension with a 10 percent (by weight) sugar solution to give a suspension containing 500 parts of test compound per million parts of final formulation, by weight. Ten milliliters of the test formulation were added to a souffle cup containing a one inch square of an absorbent cotton pad. This bait cup was introduced and centered on the blotting paper under the food strainer prior to admitting the anesthetized flies. The caged flies were allowed to feed on the bait for 24 hours, at a temperature of 80±5° F. and the relative humidity of 50±5 percent.
(§2) In these tests the pesticidal activity of the compounds against aphid, mite, Southern Armyworm, Mexican Bean Beetle, and house fly was rated as follows: […]

[2] = test system: Mexican bean beetle (Epilachna varivestis, Muls.); assay: Mexican Bean Beetle Leaf Spray Test; type: in vivo; design: key: A: excellent control; B: partial control; C: no control; conditions: fourth instar larvae; 500 parts of test compound per million parts of final formulation; 3 days
Procedure: as §1
Fourth instar larvae of the Mexican bean beetle (Epilachna varivestis, Muls.) reared on Tendergreen bean plants at a temperature of 80±5° and 50±5 percent relative humidity, were the test insects.
The test compounds were formulated by diluting the stock suspension with water to give a suspension containing 500 parts of test compound per million parts of final formulation. Potted Tendergreen bean plants of standard height and age were placed on a revolving turntable and sprayed with 100-110 milliliters of test compound formulation by use of a DeVilbiss spray gun set at 10 psig air pressure. This application, which lasted 25 seconds was sufficient to wet plants to run-off. As a control, 100-110 milliliters of a water-acetone-emulsifier solution containing no test compound were also sprayed on infested plants. When dry, the paired leaves were separated and each was placed in a 9 centimeter Petri dish lined with moistened filter paper. Five randomly selected larvae were introduced into each dish, and the dishes were closed. The closed dishes were labeled and held at a temperature of 80±5° F. for 3 days. Although the larvae could easily consume the leaf within 24 to 48 hours, no more food was added. Larvae which were unable to move the length of the body, even upon stimulation, were considered dead.
as §2

[3] = test system: bean aphid (Aphis Fabae Scop.); assay: Bean Aphid Foliage Spray Test; type: in vivo; design: key: A: excellent control; B: partial control; C: no control; conditions: 500 parts of test compound per million parts of final formulation; 24 hour
Procedure: as §1
Adults and nymphal stages of the bean aphid (Aphis Fabae Scop.) reared on potted dwarf nasturtium plants at 65°-70° F and 50-70 percent relative humidity, constituted the test insects. For testing purposes, the number of aphids per pot was standardized to 100-150 by trimming plants containing excess aphids.
The test compounds were formulated by diluting the stock suspension with water to give a suspension containing 500 parts of test compound per million parts of final formulation.
The potted plants (one pot per compound tested) infested with 100-150 aphids, were placed on a revolving turntable and sprayed with 100-110 milliliters of test compound formulation by use of a DeVilbiss spray gun set at 40 psig. air pressure. This application, which lasted 25 seconds, was sufficient to wet the plants to run-off. As a control, 100-110 milliliters of a water-acetone-emulsifier solution containing no test compound were also sprayed on infested plants. After spraying, the pots were placed on their sides on a sheet of white standard mimeograph paper which had been previously ruled to facilitate counting. Temperature and humidity in the test room during the 24 hour holding period were 65°-70° F. and 50-70 percent, respectively. Aphids which fell onto the paper and were unable to remain standing after being uprighted were considered dead. Aphids remaining on the plants were observed closely for movement and those which were unable to move the length of the body upon stimulator by prodding were considered dead. Percent mortality was recorded for various concentration levels.
as §2

[4] = test system: southern armyworm (Prodenia Eridania, (Cram.)); assay: Southern Armyworm Leaf Spray Test; type: in vivo; design: key: A: excellent control; B: partial control; C: no control; conditions: larvae; 500 parts of test compound per million parts of final formulation; 3 days
Procedure: as §1
Larvae of the southern armyworm (Prodenia Eridania, (Cram.), reared on Tendergreen bean plants at a temperature of 80±5° F. and relative humidity of 50±5 percent, constituted the test insects.
The test compounds were formulated by diluting the stock suspension with water to give a suspension containing 500 parts of test compound per million parts of final formulation. Potted Tendergreen bean plants of standard height and age were placed on a revolving turntable and sprayed with 100-110 milliliters of test compound formulation by use of a DeVilbiss spray gun set at 10 psig. air pressure.
This application which lasted 25 seconds was sufficient to wet plants to run-off. As a control, 100-110 milliliters of a water-acetone-emulsifier solution containing no test compound were also sprayed on infested plants. When dry, the paired leaves were separated and each one was placed in a 9 centimeter Petri dish lined with moistened filter paper. Five randomly selected larvae were introduced into each dish and the dishes were closed. The closed dishes were labeled and held at 80°-85° F. for 3 days. Although the larvae could easily consume the whole leaf within 24 hours, no more food was added. Larvae which were unable to move the length of the body, even upon stimulation by prodding, were considered dead. Percent mortality was recorded for various concentration levels.
as §2

[5] = test system: two-spotted mite (Tetranychus urticae Koch); assay: Mite Foliage Spray Test; type: in vivo; design: key: A: excellent control; B: partial control; C: no control; conditions: 500 parts of test compound per million parts of final formulation; 6 days
Procedure: as §1
Adults and nymphal stages of the two-spotted mite (Tetranychus urticae Koch), reared on Tendergreen bean plants at 80±5 percent relative humidity, were the test organisms. Infested leaves from a stock culture were placed on the primary leaves of two bean plants 6 to 8 inches in height, growing in a 21/2 inch clay pot. 150-200 Mites, a sufficient number for testing, transferred from the excised leaves to the fresh plants in a period of 24 hours. Following the 24 hour transfer period, the excised leaves were removed from the infested plants. The test compounds were formulated by diluting the stock suspension with water to give a suspension with water to give a suspension containing 500 parts of test compound per million parts of final formulation. The potted plants (one pot per compound) were placed on a revolving turntable and sprayed with 100-110 milliliters of test compound formulation by use of a DeVilbiss spray gun set at 40 psig. air pressure. This application, which lasted for 25 seconds was sufficient to wet the plants to run-off. As a control, 100-110 milliliters of a water solution containing acetone and emulsifier in the same concnetrations as the test compound formulation, but containing no test compound, were also sprayed on infested plants. The sprayed plants were held at 80±5 percent relative humidity for 6 days, after which a mortality count of motile forms was made. Microscopic examination for motile forms was made on the leaves of the test plants. Any individual which was capable of locomotion upon prodding, was considered living.
as §2

[6] = Mammalian Toxicity Test (peroral toxicity); conditions: in vivo, po, rat, read-out: A. O. Rat (LD50)
Procedure: Certain of these compositions were also evaluated to determine their peroral toxicity to mammals. The animal selected for this experiment was the rat. The test results obtained are expressed in terms of the number of milligrams of compositions per kilogram of weight of the animal required to achieve a morality rate of 50 percent (LD50).

Row | SMILES | Housefly [1] | Mexican Bean Beetle [2] | Aphid [3] | Southern Armyworm [4] | Mite [5] | LD50 [6] [mg/kg]
1 | CC(=NOC(=O)N(C)SN(C)C(=O)ON=C(C)S(C)(=O)=O)S(C)(=O)=O | C | C | C | C | C | –
2 | CSC(C)=NOC(=O)N(C)SN(C)C(=O)ON=C(C)[S+](C)[O-] (stereo not shown) | A | A | A | A | C | 202
3 | CC(=NOC(=O)N(C)SN(C)C(=O)ON=C(C)[S+](C)[O-])[S+](C)[O-] (stereo not shown) | C | C | C | C | C | –
4 | CSC(C)=NOC(=O)N(C)SN(C)C(=O)ON=C(C)S(C)(=O)=O | A | A | A | A | A | 285
